Test [1] deals with IL-25-induced pulmonary inflammation. Kind of test: IL-25-induced pulmonary inflammation in BALB/c mice. In kind it is in vivo, mouse. The procedure: FIG. 5 provides bar graph and staining data showing that a cell-permeable CC′ loop decoy peptide inhibits IL-17- and IL-25-induced pulmonary inflammation. Wild-type (WT) female BALB/c mice (n=4 mice per group) were pretreated with DMSO, scrambled peptide, or the CC′ loop decoy peptide for 4 hours, after which they were administered saline, IL-17, or IL-25 intranasally. Mice were sacrificed and analyzed 16 hours after injection with IL-17 or 4 days after injection with IL-25. […] All experiments were performed three times. *P<0.05.
It has been shown that Act1 plays an essential role in IL-17- and IL-25-mediated pulmonary inflammation. Thus, the inventors examined whether the Act1 SEFIR domain CC′ loop decoy peptide ameliorated IL-17- and IL-25-induced airway inflammation in vivo. BALB/c mice were pretreated with scrambled peptide or with the Act1 SEFIR domain CC′ loop decoy peptide for 4 hours, after which we injected the mice intranasally with IL-17 or IL-25. […] Consistently, IL-17-induced lung and airway recruitment of granulocytes was reduced in mice pretreated with the CC′ loop decoy peptide compared to that in mice pretreated with the scrambled peptide (FIG. 5C). The lower grade of pulmonary inflammation in the mice treated with the CC′ loop decoy peptide correlated with the decreased IL-17-dependent expression of genes encoding MCP-1 and GM-CSF in the lung tissues (FIG. 5D). […] IL-25-induced lung and airway recruitment of granulocytes, predominantly eosinophils, as well as mucin production, as determined by Periodic acid-Schiff (PAS) staining, were reduced in mice pretreated with the CC′ loop decoy peptide compared to that in mice pretreated with the scrambled peptide (FIG. 5G). The decreased pulmonary inflammation in […] correlated with decreased expression of genes encoding the TH2-type cytokines IL-5 and IL-13 in the lungs (FIG. 5H).
Intranasal injection of mice with IL-17 and IL-25: Wild-type BALB/c female mice were pretreated with dimethyl sulfoxide (DMSO, the solvent for peptides), scrambled peptide, or the CC′ loop decoy peptide for 4 hours, after which they underwent intranasal administration of saline, IL-17 (4 μg/mouse), or IL-25 (4 μg/mouse). For IL-25-treated mice, decoy peptides were administrated daily through intranasal injection after pretreatment. Mice were anesthetized with isoflurane and sacrificed. BAL fluid was collected 16 hours after injection with IL-17 or 4 days after injection with IL-25. A total of 0.7 ml of HL-1 medium (BioWhittaker®) was used to obtain BAL fluid through trachea with a blunt needle and a 1-ml syringe. Cytospin slide preparations were obtained with a Shandon CytoSpin III Cytocentrifuge (Shandon/Thermo Scientific). Differential leukocyte counts were obtained on cytospin slide preparations after incubation with Diff Quik Giemsa stain. Cytokines in the BAL were analyzed by MultipleX plate (Invitrogen®). H&E and PAS staining were performed on lung tissues after fixation in 10% neutral-buffered formalin and paraffin embedding to detect pulmonary inflammation and for assessment of goblet cell metaplasia and mucin accumulation in airway epithelial cells.

Test [2] concerns IL-25-mediated expression of Il13. Nature of the test: IL-25-mediated Il13 mRNA expression in MEFs, real-time RT-PCR. In kind it is cell-based, mouse. As to conditions: peptides 200 μM for 24 hours, then IL-25 for 3 hours. Here is the method: (§1) FIG. 4 provides data showing that a cell-permeable CC′ loop decoy peptide disrupts the interaction between Act1 and IL-17RA and inhibits IL-17R and IL-25R signaling. FIG. 4A provides sequences of Antennapedia homeodomain (Antp) (SEQ ID NO: 11)and decoy peptides (SEQ ID NOS 23-25 and 17, respectively, in order of appearance) with the Antp sequence underlined. FIG. 4B provides flow cytometry results based on experiments in which MEFs expressing IL-17RB were incubated for 2 or 24 hours with the indicated FITC-tagged peptides (200 μM) and were then analyzed by flow cytometry. […] The percentages of FITC-positive cells in the treated samples are shown. […] FIG. 4D provides Western blot results of experiments in which MEFs expressing IL-17RB were incubated with the indicated peptides (200 μM) for 24 hours after which they were treated with IL-17 or IL-25 and then analyzed by Western blotting with the indicated antibodies. […] The abundances of Cxcl1 and Il13 mRNAs were then measured by real-time RT-PCR. […]
(§2) Decoy peptides are based on surface-exposed regions of the primary sequence of a protein to mimic a putative interaction interface. […] These decoy peptides were also tagged at their C-termini with fluorescein isothiocyanate (FITC) to enable their cell-penetrating efficiency to be evaluated by flow cytometric sanalysis. […]

Test [3] deals with IL-17-mediated expression of Cxcl1. Nature of the test: IL-17-mediated Cxcl1 mRNA expression in MEFs, real-time RT-PCR. In kind it is cell-based, mouse. To be noted: peptides 200 μM for 24 hours, then IL-17 for 3 hours. The procedure:
as §1, §2
In general terms: Real-time PCR tracks product formation cycle by cycle.

With “DRQIKIWFQNRRMKWKKLDEDEHGLHTKY [CC′ loop decoy peptide]”, the “dose dependence of inhibition of IL-25-induced pulmonary inflammation” value in test [1] (data not shown) is “dose-dependent manner”. In addition, in test [1] (intranasal IL-25, 4 days), the “IL-5 in BAL” value is reported as “substantially attenuated” and the “IL-13 in BAL” value is “substantially attenuated”. The “IL-25-induced eosinophilia (eosinophils in BAL)” value in test [1] (intranasal IL-25, 4 days, vs scrambled peptide, listed as Act1 SEFIR domain CC′ loop decoy peptide) was “substantially attenuated”. Also, the “IL-25-induced eosinophilia (eosinophils in BAL)” value in test [1] (intranasal IL-25, 4 days, vs scrambled peptide, listed as CC′ decoy peptide) is recorded as “reduced accumulation”. For the same sequence, in test [1] (vs scrambled peptide), the “IL-25-induced lung and airway recruitment of granulocytes, predominantly eosinophils (H&E)” value is on record as “reduced”; the “mucin production (PAS staining)” value is given as “reduced”. The “inhibition of IL-25-mediated expression of Il13” value in test [2] is given as ~60 % inhibition. Further, in test [3], the “inhibition of IL-17-mediated expression of Cxcl1” value is recorded as ~50 % inhibition.

(Values after patent US9611295B2, “Treatment of IL-17 mediated disease by blocking SEFIR-SEFIR interactions” (THE CLEVELAND CLINIC FOUNDATION, priority 2011, dated 2017).)
